Reference: patent US20130202698A1 (NANJING SANHOME PHARMACEUTICAL CO., LTD., priority 2005, published 2013)
Where two headings read alike, the source gives them in different places. Marks after values point to notes of the source that are not given here.

Tests used:
glutamate = assay: Effects on excitatory neurotransmitter glutamate levels in mice brain; format: in vivo
Excerpt: In another experiment, the effects on excitatory neurotransmitter levels by levo- and dextro-ornidazole were compared.

[1] = system: spontaneous activities of mice; settings: both, mouse, in vivo, iv
Description: Mice weighing 18-22 g, half male and half female, were placed in the laboratory 24 hours before the test to adapt to the environment. The room temperature was controlled at 24±2° C. Animals were fasted for 8 hours before testing, and then placed in a transparent cage. The number of spontaneous activities of mice was counted by an automatic device (model XZ-4 by Drug Research Institute of China Academy of Medical Sciences). Mice were pre-screened by counting their spontaneous activities for five minutes and unqualified mice were excluded. A total of 110 mice were selected and divided into 11 groups with 10 mice in each group.
Chlorpromazine (3 mg/kg) was used as the positive control. The dose volume was 0.2 mL/10 gram and infusion rate was 0.2 mL/10 seconds.

[2] = Acute toxicity in mice (LD50); settings: mouse, in vivo
Beagle dogs = settings: dog, in vivo, iv, 200 mg/kg
Description: In the studies, male and female Beagle dogs were treated at high doses of ornidazole enantiomers for 2 weeks, and then sacrificed for anatomical and pathological examinations. […] All the doses were administered in the levo- and racemate groups.

[3] = system: Strychnine-induced convulsion; assay: Anticonvulsant effects on Strychnine-induced convulsion in mice; format: in vivo; settings: n=10; for Convulsion Latency: Mean ± SD
Description: (§1) Mice are randomized into 4 treatment groups (n=10 with half male and half female): dextro- or levo-ornidazole (dosage 40, 80, 160 mg/kg), vehicle control group (15% propylene glycol in 0.9% sodium chloride, 20 mL/kg) and the positive control group. Animals are treated with known convulsion-inducing agents, followed by the drug or vehicle control given intravenously. The dose volume is 20 mL/kg with an infusion rate of 0.2 mL/10 seconds. The anticonvulsant effects are observed and recorded (see Tables 2-6).

[4] = system: Remefline-induced convulsion; assay: Anticonvulsant effects on Remefline-induced convulsion in mice; format: in vivo
Description: In one experiment, the anticonvulsant effects of levo- and dextro-ornidazole against drug-induced convulsions in mice were compared. In four different animal convulsion models, mice were treated by four different seizure-inducing agents, including Remefline, Strychnine, isoniazid, thiosemicarbazide. Levo- or dextro-ornidazole was administered along with the seizure-inducing agents, and several outcomes were measured, including rate of convulsion, mortality rate, time to convulsion (latency), and time to death. Diazepam was used as a positive anticonvulsant control.
as §1, with “seconds.” for “seconds. The anticonvulsant effects are observed and recorded (see Tables 2-6).”

[5] = system: thiosemicarbazide-induced convulsion; assay: Anticonvulsant effects on thiosemicarbazide-induced convulsion in mice; format: in vivo; settings: n=10; for Convulsion Latency / Time to Death: Mean ± SD
Description: as §1

righting reflex = assay: Hypnotic effect, loss of righting reflex; format: in vivo, mice; settings: mouse, in vivo
Description: Thirty minutes after drug administration, the number of animals losing righting reflex (LORR) was recorded. […] Sodium pentobarbital was used at […] as the positive control.

trichomonas vaginalis = assay: Pharmacodynamic study of trichomonas vaginalis infection in mice; format: in vivo; design: ED90: unit not given beside the values; settings: male ICR mice infected intraperitoneally, drug i.v. at 2, 24, 48, 72 hours
Description: Male ICR mice were injected intraperitoneally with liquid containing 0.4 ml 3×10^6 trichomonas vaginalis (trichomonas vaginalis from clinical patients). The mice were randomly divided into 19 groups, each with 10. The mice in solvent control group were given blank solutions by tail vein injection. The treatment groups were injected intravenously at 2, 24, 48, and 72 hours after infection with active drugs. The animals were killed five days after infection. Washing offal, fluid was centrifuged, and microscopically examined for life larvae. Autopsy was performed to determine whether there was any visceral and abdominal abscess, microscopic examination was conducted to determine the number of live trichomoniasis in the abscess. […] The abscess formation was inhibited in the treatment groups[…] and the number of live trichomoniasis was reduced. Calculate the dosage of 50% (ED50) and 90% (ED90) inhibition rate.

amoeba dysentery = assay: Pharmacodynamic study of cecum amoeba infection in mice; format: in vivo; settings: male ICR mice infected in the cecum, drug i.v. at 24, 48, 72 hours
Description: Male ICR mice were injected with liquid containing about 200,000 units of amoeba dysentery in the cecum. The mice were randomly divided into 19 groups, each with 10. The mice in solvent control group were given blank solutions by tail vein injection. The treatment groups were injected intravenously at 24, 48, 72 hours after infection with active drugs. The animals were killed six days after infection. Intestinal mucosal biopsies were done, and comparative studies of different stages of the amoeba were studied under microscope. […] Calculated the dosage of 50% (ED50) and 90% (ED90) inhibition rate.

## Cc1ncc([N+](=O)[O-])n1C[C@H](O)CCl [L-ornidazole, S-(−)-ornidazole]
glutamate; FIG. 4, listed as Levo-ornidazole
  Effect on glutamate levels in cerebrum and cerebellum: little effect
glutamate; FIG. 4, listed as levo-ornidazole
  Effect on glutamate levels in cerebrum and cerebellum: little effects
[1]; 40 mg/kg, 0.5 h
  Spontaneous Activities (per 5 min): 89 ± 48 per 5 min
[1]; 40 mg/kg, 1 h
  Spontaneous Activities (per 5 min): 75 ± 40 per 5 min
[1]; 40 mg/kg, 2 h
  Spontaneous Activities (per 5 min): 69 ± 29 per 5 min
[1]; 40 mg/kg, 3 h
  Spontaneous Activities (per 5 min): 63 ± 16 per 5 min
[1]; 40 mg/kg, 4 h
  Spontaneous Activities (per 5 min): 87 ± 43 per 5 min
[1]; 80 mg/kg, 0.5 h
  Spontaneous Activities (per 5 min): 59 ± 27 per 5 min
[1]; 80 mg/kg, 1 h
  Spontaneous Activities (per 5 min): 47 ± 30 per 5 min
[1]; 80 mg/kg, 2 h
  Spontaneous Activities (per 5 min): 44 ± 25 per 5 min
[1]; 80 mg/kg, 3 h
  Spontaneous Activities (per 5 min): 58 ± 36 per 5 min
[1]; 80 mg/kg, 4 h
  Spontaneous Activities (per 5 min): 64 ± 36 per 5 min
[1]; 160 mg/kg, 0.5 h
  Spontaneous Activities (per 5 min): 40 ± 31 per 5 min
[1]; 160 mg/kg, 1 h
  Spontaneous Activities (per 5 min): 45 ± 25 per 5 min
[1]; 160 mg/kg, 2 h
  Spontaneous Activities (per 5 min): 38 ± 18 per 5 min
[1]; 160 mg/kg, 3 h
  Spontaneous Activities (per 5 min): 53 ± 23 per 5 min
[1]; 160 mg/kg, 4 h
  Spontaneous Activities (per 5 min): 58 ± 26 per 5 min
[2]; intravenous injection
  LD50: 332 mg/kg
[2]; ip, intraperitoneal injection
  LD50: 1380 mg/kg
[2]; oral gavage
  LD50: 1070 mg/kg
Beagle dogs
  Toxicity Severity: Mild
[3]; 40 mg/kg i.v.
  Convulsion Latency: 5.3 ± 2.3 min
  Mortality Rate: 10/10
[3]; 80 mg/kg i.v.
  Convulsion Latency: 7.5 ± 3.3 min
  Mortality Rate: 10/10
[3]; 160 mg/kg i.v.
  Convulsion Latency: 8.6 ± 2.3 min
  Mortality Rate: 6/10^#
[4]; 40 mg/kg i.v., n=10
  Mortality Rate: 10/10
  Rate of Convulsion: 10/10
[4]; 80 mg/kg i.v., n=10
  Rate of Convulsion: 10/10^#
[4]; 80 mg/kg i.v., n=10, listed as Levo-ornidazole, 80 mg/kg
  Mortality Rate: 10/10^##
[4]; 80 mg/kg i.v., n=10, listed as levo-ornidazole, 80 mg/kg
  Mortality Rate: 10/10
[4]; 160 mg/kg i.v., n=10
  Mortality Rate: 1/10**
  Rate of Convulsion: 9/10^##
[5]; 40 mg/kg i.v.
  Convulsion Latency: 77.1 ± 16.8 min
  Time to Death: 122.6 ± 29.8 min
[5]; 80 mg/kg i.v.
  Convulsion Latency: 85.0 ± 30.9 min
  Time to Death: 116.7 ± 38.7 min
[5]; 160 mg/kg i.v.
  Mortality Rate: 9/10^##
  Rate of Convulsion: 9/10^##
Righting reflex; both, 40 mg/kg, 30 min
  Number of animals Loss of Righting Flex 30 min Post-dose: 0
Righting reflex; both, 80 mg/kg, 30 min
  Number of animals Loss of Righting Flex 30 min Post-dose: 0
Righting reflex; both, 160 mg/kg, 30 min
  Number of animals Loss of Righting Flex 30 min Post-dose: 0
Righting reflex; 160 mg/kg
  Number of animals Loss of Righting Flex 30 min Post-dose: none
Trichomonas vaginalis; Trichomonas vaginalis, dosage of 50% inhibition rate, read-out: ED50
  ED50: 9.1 mg/kg
Trichomonas vaginalis; dosage of 90% inhibition rate
  ED90: 32.6
Amoeba dysentery; Mus musculus, iv, dosage of 50% inhibition rate
  ED50: 10.5 mg/kg
Amoeba dysentery; dosage of 90% inhibition rate
  ED90: 41.2
